Laboratory results: US20050031600A1, “Cardiac function by mesenchymal stem cell transplantation” (Genzyme Corporation, priority 1998, published 2005)

System: mesenchymal stem cells (MSCs)
Experiment: Cardiomyogenic differentiation of cultured rat MSCs in vitro (myotube formation, immunofluorescent staining)
Type: cell-based
Conditions: for staining for cardiac specific troponin I / staining for myosin heavy chain: cultured MSCs, 21st day
Description: An incision was made in the hindlimb of each rat while the rat was under general anesthesia. An 18-gauge needle was punctured to the bone and used to aspirate bone marrow (1 ml) from the tibia. The marrow aspirate was transferred to sterile tubes, which contained 10 ml Iscove's modified Dulbecco medium (TMDM; Gibco Laboratories, Gaithersberg, Md.), containing antibiotics (penicillin G, 100 U/ml; streptomycin, 100 μg/ml) and 1000 IU heparin. The marrow cell suspension was dispersed into single cells using a 23-gauge needle. The tube was spun at 2000 rpm for 5 min to pellet the cells. After removing the supernatant and fat layer, the cell pellet was re-suspended with IMDM. To separate bone marrow cells and red blood cells, the density centrifugation method described by Yablonka-Reuveni and Nameroff (Histochemistry, 87:27-38, 1987) was used. First, the cell suspension was loaded onto 20% and 60% Percoll (Sigma Chemical Co., St. Louis, Mo.) layers, which were piled up in a tube, and the tube was centrifuged at 14000 rpm. for 10 minutes. […] The cells were centrifuged at 2,000 rpm for 10 minutes and then washed with phosphate-buffered saline (PBS) to remove the Percoll. This was repeated and then the cell pellet was resuspended in culture medium and used for in vitro and in vivo studies.
To identify the optimal conditions for inducing mesenchymal stem cell (MSC) differentiation by 5-azacytidine, the cells were cultured in IMDM containing 10% fetal bovine serum and antibiotics, with 5-azacytidine (5-aza: 0.1, 1, 5, 10, 20, and 100 μM; n=6 for each group), with insulin (1 nM; n=6), or with TGFβ1 (10 ng/ml; n=6). The cells were incubated with these agents for 24 hours and then washed with PBS. The medium was changed twice a week for 21 days. Almost all the hematopoietic stem cells were washed away with the medium changes.
To test the effect of cell passaging on cardiomyogenic differentiation of MSCs, samples of MSCs, prepared as described above, were passaged once prior to preparing the cell cultures described below. In this case, the term passaging refers to the distribution of cultured cells growing in a culture dish into new dishes after the cells reach confluence (i.e. when the cells contact each other and cover the surface of the dish).
One group of the MSCs, prepared as above, was, in turn, divided into two groups: A (control) and B, each group having 6 samples. Cells of the control group, A, were cultured for 7 days in IMDM containing 10% fetal bovine serum and antibiotics. The MSCs of group B were initially cultured for 2 days in the above medium after which 5-aza (10 μM) was added to the culture medium. After a 24 hour exposure to 5-aza, the compound was washed out of the culture and the cells were culturing in the medium described above for 4 days more.
Following the above culturing period, the cells from both groups were stained by immunocytofluorescence to detect the presence of cardiac-specific troponin I (a contractile apparatus-specific protein found only in cardiomyocytes) or muscle-specific myosin heavy chain. Briefly, the staining method entailed washing the cells with phosphate-buffer saline (PBS), followed by incubation in methanol at −20° C. for 20 minutes. The dishes were then washed with PBS three times. Monoclonal antibodies specific against cardiac troponin I (Spectral Diagnostic, Toronto) or against myosin heavy chain (Biogenesis, USA), were added to the cells and the dishes were incubated at 37° C. for 1 hour. To remove unbound antibody, the dishes were gently shaken at room temperature and washed three times with PBS. A rabbit antibody conjugated with FITC (fluorescein isothiocyanate) against mouse IgG was added to the dishes, after which incubation and rinsing with PBS were performed as described above for the first antibody. Observations were made and photos were taken. […]

[1] = cultured bone marrow MSCs, 5-aza added on third day, seen on 10th day of culture

Molecule	staining for cardiac specific troponin I	staining for myosin heavy chain	myotube formation [1]	myotube formation (5 μM 5-aza for 24 hours)	number of MSCs in cultures (10 μM 5-aza added on first or second day compared with third day after isolation)	number of myotubes, visually determined (10 μM 5-aza compared with 5 μM 5-aza)	myotube formation (10 μM 5-aza for 24 hours)	necrotic cells (MSCs incubated with 5-aza at 20 μM)	necrotic cells (MSCs incubated with 5-aza at 100 μM)	differentiation into cardiomyocyte-like cells (myotube formation) (MSCs passaged once, then 5-aza 10 μM for 24 hours)	cell morphology (concentrations of 5-aza lower than 5 μM)
TGFβ1	negative	negative	did not form myotubes								
insulin	negative	negative	did not form myotubes								
Nc1ncn([C@@H]2O[C@H](CO)[C@@H](O)[C@H]2O)c(=O)n1 [5-aza, 5-azacytidine]	stained positively	stained positively	formed multinucleated myotubes	myotube formation was present	much smaller	greater	myotube formation was present	more than 50%	more than 50%	did not differentiate into cardiomyocyte-like cells	morphologically similar to the control cells
